{"source": "paper PMC6522941", "about": "“Design, synthesis, and anticancer evaluation of novel quinoline derivatives of ursolic acid with hydrazide, oxadiazole, and thiadiazole moieties as potent MEK inhibitors” (Journal of Enzyme Inhibition and Medicinal Chemistry, 2019)", "format_in_all_cases": "cell-based, human", "key": {"QSG-7701 cells": {"test_system": "QSG-7701 cells", "assay": "MTT cytotoxic assay, normal hepatocyte QSG-7701", "method": "(§1) Human breast cancer cell line (MDA-MB-231), cervical carcinoma cell line (HeLa), the liver cancer cell line (SMMC-7721) and normal hepatocyte cell line (QSG-7701) were maintained in Dulbecco Modified Eagle Medium (DMEM) containing 4.0 mM L-Glutamine and 4500 mg/L Glucose supplemented with 10% (v/v) foetal bovine serum (FBS) and 100 U/mL penicillin/streptomycin at 37 °C in humidified atmosphere of 5% CO2 and 95% air.\n(§2) Exponentially growing MDA-MB-231, Hela and SMMC-7721 cell lines were seeded into 96-well plate for 100 μL and treated with different concentrations of the synthetic compounds for 72 h, and then 10 μL of MTT (10 mg/mL) was added and incubation for 3 ∼ 4 h at 37 °C. The generated purple formazan crystals from viable can be dissolved by adding 100 μL DMSO. The plates were swirled gently for 5 min and quantified by measuring the OD of the plates at the wavelength of 540 nm. Each concentration was repeated in three wells and the same experimental condition was provided for all compounds. The results were expressed as IC50 values with standard deviations, which was defined as the concentration at which 50% survival of cells was discerned. Etoposide was co-assayed as positive control.\n(§3) The in vitro cytotoxic activity of derivatives 3a–d, 4a–h, 5a–h, and 6a–h were evaluated by MTT assay against human breast cancer cell line (MDA-MB-231), cervical carcinoma cell line (HeLa), hepatocarcinoma cell line (SMMC-7721) and human normal hepatocyte cell line (QSG-7701). The anticancer drug etoposide was co-assayed as the positive control. All tested compounds were dissolved in DMSO and the stock solutions were diluted by DMEM medium before treatment of the cultured cells."}, "HeLa cells": {"test_system": "HeLa cells", "assay": "ROS generation assay (DCFH-DA)", "details": "0.2 μM, 48 h", "method": "ROS generation assay was performed by using the reactive oxygen species assay kit (Beyotime Biotech., Nantong, China). Intracellular ROS generation was tested through dichlorodihydro fluorescein diacetate (DCFH-DA) assay. DCFH-DA is taken up by HeLa cells, and then activated by esterase-mediated cleavage of acetate to form DCFH, which is trapped in the cells. DCFH is converted to fluorescein DCF in the presence of ROS. HeLa cells were seeded in six-well plates and incubated with different concentrations of compound 4d for 48 h. After removing the compound solution, cells were treated with 10 μM of DCFH-DA at 37 °C for 20 min. Subsequently, the cells were washed with PBS for three times and then exposed to light. Immediately after light exposure, the fluorescence intensity of dichlorofluorescein (DCF) was measured with excitation at 488 nm and emission at 525 nm by a flow cytometry (Becton-Dickinson FACSCalibur, Totowa, NJ, USA).\nROS has been reported to be involved in early stages of apoptosis in many cellular systems. […] HeLa cells were exposed to compound 4d at 0 ∼ 0.2 μM concentrations for 48 h and the intracellular fluorescence intensity was quantitatively analysed by flow cytometry. […]"}, "MDA-MB-231 cells": {"test_system": "MDA-MB-231 cells", "assay": "MTT cytotoxic assay, MDA-MB-231", "details": "Homo sapiens, MDA-MB-231, 72 h", "method": "as §1, §2, §3"}, "[1]": {"test_system": "ERK1/2 and pERK1/2 in HeLa cells", "assay": "Western blot of ERK and pERK", "details": "48 h", "method": "HeLa cells were seeded at a density of 5 × 10^6 cells per well and attached for 8 h, and then treated with different concentrations of compound 4d for 48 h. After the treatment, the cells were harvested and washed twice with PBS. The harvested cells were lysed with radio-immunoprecipitation assay (RIPA) lysis buffer (Beyotime Biotech., Nantong, China) with 1% cocktail (Sigma-Aldrich, St. Louis, MO, USA). Whole-cell protein lysates were prepared and centrifuged at 12,000 rpm for 10 min at 4 °C. The total proteins were determined using Bradford reagent (Bio-Rad Laboratories, Inc., Hercules, CA, USA). Exactly 40 μg of protein per lane was separated through sodium dodecyl sulphate-polyacrylamide gel electrophoresis and then transferred onto a polyvinylidene difluoride membrane (Millipore, Bedford, MA, USA). The membranes were incubated with each antibody and detected through immunoblot analysis. All of the antibodies were purchased from Cell signalling Technology, Inc. (Boston, MA, USA) and diluted in accordance with the manufacturer’s instruction. Proteins were visualised using a C-Digit® imaging system (LI-COR, Lincoln, NE, USA).\nSubsequently, to evaluate the MEK inhibition of compound 4d in cancer cells, western blot analyses were also carried out to evaluate the expression levels of ERK and phosphorylated ERK (pERK) proteins in compound 4d-treated HeLa cells."}}, "data": [{"smiles": "CC(=O)NNC(=O)C12CCC(C)C(C)C1C1=CCC3C4(C)Cc5cc6cc(Cl)ccc6nc5C(C)(C)C4CCC3(C)C1(C)CC2", "note": "(stereo not shown) [Compound 4d, N-[5′-chloro-ursa-12-en-(2,3)-quinoline-28-oyl]-acetohydrazide]", "values": [{"measurement": "IC50", "setting": "QSG-7701 cells; Homo sapiens, QSG7701, MTT, normal hepatocyte cell line", "result": "10.8 ± 0.72", "unit": "µM"}, {"measurement": "Selectivity", "setting": "QSG-7701 cells; IC50 (QSG-7701)/IC50 (HeLa)", "result": 134.5}, {"measurement": "increase of mean fluorescence intensity compared to the control group", "setting": "HeLa cells", "result": 84, "unit": "%"}, {"measurement": "% relative ROS raised cells", "setting": "HeLa cells; control 13.18", "result": 49.66, "unit": "%"}, {"measurement": "IC50", "setting": "MDA-MB-231 cells", "result": "0.12 ± 0.01", "unit": "µM"}, {"measurement": "expression level of pERK1/2, % of the control group", "setting": "[1]; 0.05 μM", "result": 74.7, "unit": "%"}, {"measurement": "expression level of pERK1/2, % of the control group", "setting": "[1]; 0.1 μM", "result": 41.3, "unit": "%"}, {"measurement": "expression level of pERK1/2, % of the control group", "setting": "[1]; 0.2 μM", "result": 29.5, "unit": "%"}, {"measurement": "expression levels of ERK1/2", "setting": "[1]; 0.05, 0.1, 0.2 μM", "result": "slightly decreased"}, {"measurement": "expression levels of pERK1/2", "setting": "[1]; 0.05, 0.1, 0.2 μM", "result": "significantly downregulated"}]}]}
